Results on one molecule are retold here after EP4722228A1, “NEW COMPOUND TARGETING MUSK AND USE THEREOF” (The University of Tokyo, priority 2023, dated 2024).

Bridge positions count the residues as written; N and C are the ends. Square brackets hold non-standard residues; d marks the D form. Peptide text beside a SMILES is read from it. I, II: the chains in the order shown. * marks the point of attachment. Palmitoyl = CCCCCCCCCCCCCCCC(=O)*; PEG3 = NCCOCCOCCOCCC(=O)O; Dap = NC[C@H](N)C(=O)O

This experiment has as its system rat PTMG model using anti-acetylcholine receptor monoclonal antibody (mAb35). Kind of experiment: Movement score in rat PTMG model. The format is in vivo. The procedure:
(§1) 5-week-old female rats (n=20, LEW/CrlCrlj, 4 weeks old when carried in, Jackson Laboratory Japan) were divided into four groups (Group A, Group B, Group C, and Group D) using body weight measurement results as indexes. Vehicle was administered to Group A, and the test compound MuSK7-pal dissolved in vehicle was administered intravenously to each of Group B (3 mg/kg), Group C (2 mg/kg), and Group D (1 mg/kg) (Day 0). Two hours after intravenous administration, an anti-nicotinic acetylcholine receptor monoclonal antibody (mAb35, National Hospital Organization Nagasaki Kawatana Medical Center) dissolved in PBS (pH 7.4) as a drug for inducing the pathology of myasthenia gravis was administered intraperitoneally to all animals at 200 µg/rat (Day 0). The vehicle, which was a solvent of the compound, was phosphate-buffered saline (PBS) at pH 7.4 containing 20% hydroxypropyl-β-cyclodextrin and 0.02% polysorbate 80 (the same applies to Example 3(2)).
The movement of the animals was evaluated at each time point of 9, 24, 33, 48, 57, and 72 hours (hr) after antibody administration according to six-level evaluation criteria (Score). The evaluation criteria were as follows. • 0: Normal • 1: Reduced grip strength in forelimbs and hindlimbs • 2: Incomplete paralysis of hindlimbs • 3: Complete paralysis of hindlimbs and inability to stand • 4: Moribund • 5: Death
The average score of the rats in each group was calculated. In addition, in a cage in which a rat determined to have a score of 2 or higher was present, crushed transport agar (manufactured by Oriental Yeast Co., Ltd.) and pellet feed were provided.
as §1, with “(n=24,” for “(n=20,”, “(0.5” for “(3”, “(0.25” for “(2”, “(0.1” for “(1”, “0).” for “0). The vehicle, which was a solvent of the compound, was phosphate-buffered saline (PBS) at pH 7.4 containing 20% hydroxypropyl-β-cyclodextrin and 0.02% polysorbate 80 (the same applies to Example 3(2)).”
The movement of the animals was evaluated at each time point of 9, 24, 33, 48, 57, and 72 hours (hr) after antibody administration according to six-level evaluation criteria (Score). The evaluation criteria were the same as those in (1) B above.
5-week-old female rats (LEW/CrlCrlj, 4 weeks old when carried in, Jackson Laboratory Japan) were divided into three groups (Group A, Group B, and Group C) using body weight measurement results as indexes. The test compound (tetramer of Ub012 (EAAAK)3) dissolved in vehicle was administered intravenously to Group A (5 mg/kg) (n=5), the test compound (tetramer of Ub012(ΔGG) (EAAAK)3) dissolved in vehicle was administered intravenously to Group B (5 mg/kg) (n=5), and vehicle was administered intravenously to Group C (n=5), respectively (Day 0). Two hours after intravenous administration, an anti-nicotinic acetylcholine receptor monoclonal antibody (mAb35, National Hospital Organization Nagasaki Kawatana Medical Center) dissolved in PBS (pH 7.4) as a drug for inducing the pathology of myasthenia gravis was administered intraperitoneally to all animals at 200 µg/rat (Day 0).
The movement of the animals was evaluated at each time point of 9, 24, 33, 48, 57, and 72 hours (hr) after antibody administration according to six-level evaluation criteria (Score). The evaluation criteria were the same as those in Example 3(1) B.

Consider `CCCCCCCCCCCCCCCC(=O)NCCCC[C@H](NC(=O)[C@H](CNC(=O)CCOCCOCCOCCNC(=O)CNC(=O)[C@@H]1CSCC(=O)N[C@H](Cc2ccc(O)cc2)C(=O)N2CCC[C@H]2C(=O)N[C@@H](CO)C(=O)N[C@@H](Cc2ccc(O)cc2)C(=O)N[C@@H](Cc2c[nH]cn2)C(=O)N[C@@H]([C@@H](C)O)C(=O)N[C@@H](CC(N)=O)C(=O)N[C@@H](C(C)C)C(=O)N[C@@H](C(C)C)C(=O)N[C@@H](C)C(=O)N[C@@H](CO)C(=O)N[C@@H](CC(C)C)C(=O)N[C@@H](CCCCN)C(=O)N[C@@H](CCCNC(=N)N)C(=O)N1)NC(=O)CCOCCOCCOCCNC(=O)CNC(=O)[C@@H]1CSCC(=O)N[C@H](Cc2ccc(O)cc2)C(=O)N2CCC[C@H]2C(=O)N[C@@H](CO)C(=O)N[C@@H](Cc2ccc(O)cc2)C(=O)N[C@@H](Cc2c[nH]cn2)C(=O)N[C@@H]([C@@H](C)O)C(=O)N[C@@H](CC(N)=O)C(=O)N[C@@H](C(C)C)C(=O)N[C@@H](C(C)C)C(=O)N[C@@H](C)C(=O)N[C@@H](CO)C(=O)N[C@@H](CC(C)C)C(=O)N[C@@H](CCCCN)C(=O)N[C@@H](CCCNC(=N)N)C(=O)N1)C(N)=O` [MuSK7-pal] (I: {CH2CO}-[dY]PSYHTNVVASLKRCG[PEG3][Dap]K(Palmitoyl)-NH2 / II: {CH2CO}-[dY]PSYHTNVVASLKRCG[PEG3]; amide I:18-II:C; thioether I:N-I:15, II:N-II:15), for which the movement score entry is “the scores remained low compared to the control group” (0.1 mg/kg intravenously (Group D, Example 3(2)), not significant vs Group A); “significantly lower than those in Group A at all measurement points except at 9 hr and at 57 hr” (0.25 mg/kg intravenously (Group C, Example 3(2)), Dunn's test); “significantly lower than those in Group A at all measurement points after 24 hr” (0.5 mg/kg intravenously (Group B, Example 3(2)), Dunn's test); 0 (1 mg/kg intravenously (Group D, Example 3(1)), all individuals, all measurement points, score 0-5); “the scores remained low at all measurement points” (2 mg/kg intravenously (Group C, Example 3(1)), 9 to 72 hr, score 0-5); “the scores remained low at all measurement points” (3 mg/kg intravenously (Group B, Example 3(1)), 9 to 72 hr, score 0-5).
